Laboratory results as given in patent publication US12258422B2, “Cyclopeptide and method for preparing the same” (NATIONAL TSING HUA UNIVERSITY, priority 2020, dated 2025).
Where “and” joins values, the source holds several entries; their conditions need not be identical. Equal entries are not always repeated.

Legend:
hs68 human fibroblasts [1] = test: Procollagen Type I C-Peptide (PIP) EIA, induction of procollagen secretion; type: cell-based
Text: (§1) Type I collagen is the primary component of the skin dermis. Both the quantity and quality of extracellular collagen are primarily related to skin ageing. The present embodiment was examined, by using Procollagen Type I C-Peptide (PIP) EIA Kit, effects of induction of procollagen secretion and cytotoxicity in respect of hs68 human fibroblasts.

[2] = Cytotoxicity (cell viability) in anti-aging evaluation; type: cell-based, human; details: human, hs68 human fibroblasts, (sample/control) × 100%
Text: as §1

MMP-1 = MMP-1 inhibition test: TNF-α-induced MMP-1 level in skin fibroblasts, ELISA; type: cell-based, human; details: for inhibition of MMP-1: compared to 3.3 μM of RA (set as 100%); for IC50: Hs68, TNF-α induced, calculated from inhibition rate vs concentration (FIG. 1, FIG. 2); for MMP-1 Conc.: TNF-α 20 ng/mL, Hs68
Experimental: Matrix Metalloproteinase-1 (MMP-1) is one of collagenases, and is involved in the degradation of the extracellular matrix (ECM). In details, fibroblasts result in the overexpression of MMP-1 after exposure to UV-containing sunlight, so that the ECM is then degraded by MMP-1.
To examine the effect of the cyclopeptide of the present disclosure, a series of MMP-1 inhibition test was conducted.
In this test, test compound and human fibroblasts were co-cultured, and cytokine tumor necrosis factor-α (TNF-α) was added as an inducer to induce the expression of MMP-1 to a high level. Then, the test compound was evaluated for the ability of reducing the MMP-1 level induced by TNF-α.
Test compound: cyclopeptide (III-3) of the present disclosure, in which Q is Cl.
Cell Line: Skin Fibroblast Hs68
First, the seeding of skin fibroblast Hs68 cells onto culture medium dish was conducted overnight, and then different concentrations (0.05 μM, 0.25 μM, 1.25 μM, 2.5 μM and 5 μM) of cyclopeptide (III-3) were added to the skin fibroblast cells for 6 hours, which was further incubated with TNF-α (20 ng/mL) for 42 hours.

hs68 human fibroblasts [3] = test: Cytotoxicity (cell viability) in anti-aging evaluation; type: cell-based; details: TGFβ; (sample/control) × 100%
Text: as §1

N=C(N)NCCC[C@@H]1NC(=O)C2(CCCCC2)NC(=O)[C@@H](Cc2ccccc2)NC(=O)[C@H](CC(=O)O)NC(=O)CNC1=O [III-5]
Procollagen Type I (hs68 human fibroblasts [1]; cyclopeptide 0.0008 μM): 235 ng/mL
Procollagen Type I (hs68 human fibroblasts [1]; cyclopeptide 0.004 μM): 225 ng/mL
Procollagen Type I (hs68 human fibroblasts [1]; cyclopeptide 0.02 μM): 220 ng/mL
Procollagen Type I (hs68 human fibroblasts [1]; cyclopeptide 0.1 μM): 208 ng/mL
Procollagen Type I (hs68 human fibroblasts [1]; cyclopeptide 0.25 μM): 208 ng/mL
Procollagen Type I (hs68 human fibroblasts [1]; cyclopeptide 0.5 μM): 184 ng/mL
viability at 0.0008 µM ([2]; cyclopeptide 0.0008 μM): 92%
viability at 0.004 µM ([2]; cyclopeptide 0.004 μM): 97%
viability at 0.02 µM ([2]; cyclopeptide 0.02 μM): 100%
viability at 0.1 µM ([2]; cyclopeptide 0.1 μM): 97%
viability at 0.25 µM ([2]; cyclopeptide 0.25 μM): 99%
viability at 0.5 µM ([2]; cyclopeptide 0.5 μM): 100%

CC(C)[C@H]1CC[C@H](C)CC12NC(=O)[C@@H](Cc1ccccc1)NC(=O)[C@H](CC(=O)O)NC(=O)CNC(=O)[C@H](CCCNC(=N)N)NC2=O (stereo partly drawn) [III-3]
inhibition of MMP-1 (MMP-1; 0.05 μM): about 60%
inhibition of MMP-1 (MMP-1; 0.25 μM): about 80%
inhibition of MMP-1 (MMP-1; 1.25 μM): ~87%
inhibition of MMP-1 (MMP-1; 2.5 μM): ~91%
IC50 (MMP-1): 0.02 µM
MMP-1 Conc. (MMP-1; cyclopeptide 0.05 μM): 337.8 pg/mL
MMP-1 Conc. (MMP-1; cyclopeptide 0.25 μM): 244.2 pg/mL
MMP-1 Conc. (MMP-1; cyclopeptide 1.25 μM): 212.7 pg/mL
MMP-1 Conc. (MMP-1; cyclopeptide 2.5 μM): 194.2 pg/mL
MMP-1 Conc. (MMP-1; cyclopeptide 5 μM): 168.6 pg/mL

N=C(N)NCCC[C@@H]1NC(=O)C2(CCNCC2)NC(=O)[C@@H](Cc2ccccc2)NC(=O)[C@H](CC(=O)O)NC(=O)CNC1=O [III-1]
inhibition of MMP-1 (MMP-1; 0.05 μM): 12%
inhibition of MMP-1 (MMP-1; 0.25 μM): 38%
inhibition of MMP-1 (MMP-1; 1.25 μM): 90%
IC50 (MMP-1): 0.7 µM
MMP-1 Conc. (MMP-1; cyclopeptide 0.05 μM): 422.3 pg/mL
MMP-1 Conc. (MMP-1; cyclopeptide 0.25 μM): 378.2 pg/mL
MMP-1 Conc. (MMP-1; cyclopeptide 1.25 μM): 288.0 pg/mL
MMP-1 Conc. (MMP-1; cyclopeptide 2.5 μM): 271.8 pg/mL

CC1=C(/C=C/C(C)=C/C=C/C(C)=C/C(=O)O)C(C)(C)CCC1 [RA, retinoic acid, reference compound]
MMP-1 Conc. (MMP-1; RA 3.3 μM (positive control)): 155.9 pg/mL and 271.3 pg/mL

TGFβ [reference compound]
Procollagen Type I (hs68 human fibroblasts [1]; TGFβ 0.83 μM): 320 ng/mL
Cell viability (hs68 human fibroblasts [3]): 95%
